Data as given in ChEMBL document CHEMBL2203211, “Isocytosine-based inhibitors of xanthine oxidase: design, synthesis, SAR, PK and in vivo efficacy in rat model of hyperuricemia” (Bioorg Med Chem Lett, 2012).
Each block holds one compound with its values, some of them ahead of it. Activity calls are given as the source filed them. The rule behind the calls is not given here.

How the values were obtained:
[1] = biological target: Xanthine dehydrogenase/oxidase (Homo sapiens, UniProt P47989)
Description: Inhibition of xanthine oxidase using xanthine as substrate at 30 mins by spectrophotometric analysis

[2] = Tmax in rat at 50 mg/kg, ip; assay type: ADME, organism-based; design: dose 50 mg/kg, route intraperitoneal; conditions: in vivo
[3] = Half life in rat at 100 mg/kg, po; assay type: ADME, organism-based; design: dose 100 mg/kg, route oral; conditions: in vivo
[4] = AUC (0 to infinity) in rat at 100 mg/kg, po; assay type: ADME, organism-based; design: time infinity, dose 100 mg/kg, route oral; conditions: plasma
[5] = AUClast in rat at 100 mg/kg, po; assay type: ADME, organism-based; design: time 0 - last, dose 100 mg/kg, route oral; conditions: plasma
[6] = Cmax in rat at 100 mg/kg, po; assay type: ADME, organism-based; design: dose 100 mg/kg, route oral; conditions: in vivo
[7] = Tmax in rat at 100 mg/kg, po; assay type: ADME, organism-based; design: dose 100 mg/kg, route oral; conditions: in vivo
[8] = AUC (0 to infinity) in rat at 50 mg/kg, ip; assay type: ADME, organism-based; design: time infinity, dose 50 mg/kg, route intraperitoneal; conditions: plasma
[9] = Half life in rat at 50 mg/kg, ip; assay type: ADME, organism-based; design: dose 50 mg/kg, route intraperitoneal; conditions: in vivo
[10] = Cmax in rat at 50 mg/kg, ip; assay type: ADME, organism-based; design: dose 50 mg/kg, route intraperitoneal; conditions: in vivo
[11] = AUClast in rat at 50 mg/kg, ip; assay type: ADME, organism-based; design: time 0 - last, dose 50 mg/kg, route intraperitoneal; conditions: plasma
[12] = system: Rattus norvegicus; assay: Antihyperuricemic activity in fasted rat assessed as reduction in potassium oxonate-induced uric acid level in serum at 50 mg/kg, ip administered 1 hr post potassium oxonate-challenge relative to vehicle-treated control; assay type: functional; design: scale not given: the % may be the effect or the level left; conditions: route intraperitoneal
[13] = system: Rattus norvegicus; assay: Antihyperuricemic activity in fasted rat assessed as reduction in potassium oxonate-induced uric acid level in serum at 10 mg/kg, po administered 1 hr post potassium oxonate-challenge relative to vehicle-treated control; assay type: functional; design: scale not given: the % may be the effect or the level left
[14] = system: Rattus norvegicus; assay: Antihyperuricemic activity in fasted rat assessed as reduction in potassium oxonate-induced uric acid level in serum at 100 mg/kg, ip administered 1 hr post potassium oxonate-challenge relative to vehicle-treated control; assay type: functional; design: scale not given: the % may be the effect or the level left; conditions: route intraperitoneal
[15] = system: Rattus norvegicus; assay: Antihyperuricemic activity in fasted rat assessed as reduction in potassium oxonate-induced uric acid level in serum at 100 mg/kg, po administered 1 hr post potassium oxonate-challenge relative to vehicle-treated control; assay type: functional; design: scale not given: the % may be the effect or the level left
[16] = system: Rattus norvegicus; assay: Antihyperuricemic activity in fasted rat assessed as reduction in potassium oxonate-induced uric acid level in serum at 100 mg/kg, po administered 1 hr post potassium oxonate-challenge relative to allopurinol; assay type: functional
[17] = Clearance in rat at 2 mg/kg, iv; assay type: ADME, organism-based; design: dose 2 mg/kg, route intravenous; conditions: in vivo
[18] = Initial plasma concentration in rat at 2 mg/kg iv; assay type: ADME, organism-based; design: dose 2 mg/kg, route intravenous
[19] = Volume of distribution in rat at 2 mg/kg, iv; assay type: ADME, organism-based; design: dose 2 mg/kg, route intravenous; conditions: in vivo
[20] = Half life in rat at 2 mg/kg, iv; assay type: ADME, organism-based; design: dose 2 mg/kg, route intravenous; conditions: in vivo
[21] = AUClast in rat at 2 mg/kg, iv; assay type: ADME, organism-based; design: time 0 - last, dose 2 mg/kg, route intravenous; conditions: plasma
[22] = AUC (0 to infinity) in rat at 2 mg/kg, iv; assay type: ADME, organism-based; design: time infinity, dose 2 mg/kg, route intravenous; conditions: plasma
[23] = Cmax in rat at 2 mg/kg, iv; assay type: ADME, organism-based; design: dose 2 mg/kg, route intravenous; conditions: in vivo
[24] = Tmax in rat at 2 mg/kg, iv; assay type: ADME, organism-based; design: dose 2 mg/kg, route intravenous; conditions: in vivo
[25] = Half life in rat at 10 mg/kg, po; assay type: ADME, organism-based; design: dose 10 mg/kg, route oral; conditions: in vivo
[26] = AUC (0 to infinity) in rat at 10 mg/kg, po; assay type: ADME, organism-based; design: time infinity, dose 10 mg/kg, route oral; conditions: plasma
[27] = Cmax in rat at 10 mg/kg, po; assay type: ADME, organism-based; design: dose 10 mg/kg, route oral; conditions: in vivo
[28] = AUClast in rat at 10 mg/kg, po; assay type: ADME, organism-based; design: time 0 - last, dose 10 mg/kg, route oral; conditions: plasma
[29] = Tmax in rat at 10 mg/kg, po; assay type: ADME, organism-based; design: dose 10 mg/kg, route oral; conditions: in vivo
[30] = system: Rattus norvegicus; assay: Antihyperuricemic activity in fasted rat assessed as reduction in potassium oxonate-induced uric acid level in serum at 200 mg/kg, po administered 1 hr post potassium oxonate-challenge relative to vehicle-treated control; assay type: functional, organism-based; design: dose 200 mg/kg

Xanthine dehydrogenase/oxidase, sequence (P47989 whole entry): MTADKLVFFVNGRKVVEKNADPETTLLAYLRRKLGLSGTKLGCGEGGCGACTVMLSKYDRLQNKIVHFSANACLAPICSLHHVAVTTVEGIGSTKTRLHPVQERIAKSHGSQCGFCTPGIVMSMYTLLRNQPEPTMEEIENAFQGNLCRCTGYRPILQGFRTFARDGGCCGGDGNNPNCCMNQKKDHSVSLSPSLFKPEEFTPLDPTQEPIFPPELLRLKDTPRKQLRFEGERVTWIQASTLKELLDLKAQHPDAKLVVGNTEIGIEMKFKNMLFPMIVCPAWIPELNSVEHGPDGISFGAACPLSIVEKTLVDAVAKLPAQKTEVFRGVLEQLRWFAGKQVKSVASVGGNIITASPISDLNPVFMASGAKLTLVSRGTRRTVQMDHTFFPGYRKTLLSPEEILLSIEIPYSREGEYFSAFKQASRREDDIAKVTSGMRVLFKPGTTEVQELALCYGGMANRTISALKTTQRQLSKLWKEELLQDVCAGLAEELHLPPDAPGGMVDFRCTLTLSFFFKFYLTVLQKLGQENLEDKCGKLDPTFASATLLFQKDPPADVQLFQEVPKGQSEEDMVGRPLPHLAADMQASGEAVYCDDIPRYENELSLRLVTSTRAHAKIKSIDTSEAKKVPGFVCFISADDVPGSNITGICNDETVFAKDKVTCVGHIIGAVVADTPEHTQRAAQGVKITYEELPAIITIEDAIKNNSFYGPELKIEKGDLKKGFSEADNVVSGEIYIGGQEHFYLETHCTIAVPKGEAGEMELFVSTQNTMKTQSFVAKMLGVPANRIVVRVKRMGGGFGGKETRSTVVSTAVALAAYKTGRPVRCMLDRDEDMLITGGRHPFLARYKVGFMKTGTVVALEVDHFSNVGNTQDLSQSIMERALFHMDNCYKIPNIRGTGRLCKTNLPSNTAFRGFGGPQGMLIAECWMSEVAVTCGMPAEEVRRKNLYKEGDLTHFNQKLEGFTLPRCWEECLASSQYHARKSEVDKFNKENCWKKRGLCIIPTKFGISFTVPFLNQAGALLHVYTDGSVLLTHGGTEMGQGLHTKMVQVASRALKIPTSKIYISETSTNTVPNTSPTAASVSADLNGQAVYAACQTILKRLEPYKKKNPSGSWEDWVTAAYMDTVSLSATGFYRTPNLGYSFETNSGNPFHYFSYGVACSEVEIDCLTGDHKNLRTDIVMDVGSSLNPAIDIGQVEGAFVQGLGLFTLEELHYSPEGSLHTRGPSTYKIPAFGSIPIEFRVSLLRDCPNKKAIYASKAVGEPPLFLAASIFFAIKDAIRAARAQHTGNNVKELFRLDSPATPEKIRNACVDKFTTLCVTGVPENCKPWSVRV

Structure (SMILES): CC(C)COc1ccc(-c2cc(=O)[nH]c(N)n2)cc1C(N)=O
IC50 [1]: 1.92 µM

Structure (SMILES): CCCCSc1ccc(-c2cc(=O)[nH]c(N)n2)cc1
IC50 [1]: 1.63 µM

Structure (SMILES): CC(C)COc1ccc(-c2cc(=O)[nH]c(N)n2)cc1OC(F)(F)F
IC50 [1]: > 20 µM

Structure (SMILES): Cc1nc(-c2ccc(OCC(C)C)c(C#N)c2)sc1C(=O)O [FEBUXOSTAT]
Activity [13]: 180% | Activity [14]: 181% | IC50 [1]: 0.03 µM

Structure (SMILES): CCCCOc1ccc(-c2cc(=O)[nH]c(N)n2)cc1
IC50 [1]: 2.1 µM

Structure (SMILES): CC(C)COc1ccc(-c2cc(=O)[nH]c(N)n2)cc1C#N
clearance [17]: 71.3 mL/min/kg | C0 [18]: 1360 ng/mL | Vd [19]: 3.83 L/kg | half-life [20]: 0.63 h | AUC(0-t) [21]: 470 ng·h/mL | AUC(0-inf) [22]: 480 ng·h/mL | Cmax [23]: 4.19 µM | Tmax [24]: 1.8 min | half-life [25]: 11.4 h | AUC(0-inf) [26]: 310 ng·h/mL | Cmax [27]: 0.23 µM | AUC(0-t) [28]: 200 ng·h/mL | Tmax [29]: 0.19 h

Structure (SMILES): CC(C)COc1ccc(-c2cc(=O)[nH]c(N)n2)cc1N
IC50 [1]: 6.72 µM

Structure (SMILES): Oc1ncnc2[nH]ncc12 [ALLOPURINOL]
Activity [13]: 130% | Activity [14]: 177%

Structure (SMILES): CC(C)COc1ccc(-c2cc(O)nc(N)n2)cc1C#N
Activity [30]: inactive | Activity [14]: 124%

Now from value to compound, other results behind:

Tmax [2]: 3.33 h | half-life [3]: 2.85 h | AUC(0-inf) [4]: 890 ng·h/mL | AUC(0-t) [5]: 600 ng·h/mL | Cmax [6]: 0.81 µM | Tmax [7]: 0.88 h | AUC(0-inf) [8]: 23100 ng·h/mL | half-life [9]: 5.52 h | Cmax [10]: 7.13 µM | AUC(0-t) [11]: 21900 ng·h/mL
Structure (SMILES): Nc1nc(-c2ccc(-c3ccccc3)cc2)cc(=O)[nH]1

IC50 [1]: 2.44 µM
Structure (SMILES): CC(C)Sc1ccc(-c2cc(O)nc(N)n2)cc1

IC50 [1]: 9.24 µM
Structure (SMILES): Nc1nc(O)cc(-c2ccc(OCCCO)cc2)n1

Tmax [2]: 2 h | AUC(0-inf) [8]: 27700 ng·h/mL | half-life [9]: 0.85 h | Cmax [10]: 34.3 µM | AUC(0-t) [11]: 27600 ng·h/mL | IC50 [1]: 0.95 µM
Structure (SMILES): COc1cc(-c2cc(O)nc(N)n2)ccc1OCC(C)C
Activity [12]: 55%

Tmax [2]: 2 h | AUC(0-inf) [8]: 17600 ng·h/mL | half-life [9]: 12.2 h | Cmax [10]: 9.59 µM | AUC(0-t) [11]: 14000 ng·h/mL | IC50 [1]: 0.14 µM
Structure (SMILES): CC(C)COc1ccc(-c2cc(O)nc(N)n2)cc1[N+](=O)[O-]
Activity [14]: 133% | Activity [15]: 93%

IC50 [1]: 16.5 µM
Structure (SMILES): Nc1nc(O)cc(-c2ccc(N3CCOCC3)cc2)n1

half-life [3]: 3.42 h | AUC(0-inf) [4]: 5680 ng·h/mL | AUC(0-t) [5]: 4390 ng·h/mL | Cmax [6]: 5.16 µM | Tmax [7]: 0.5 h
Structure (SMILES): CC(C)COc1ccc(-c2cc(O)nc(N)n2)cc1
Activity [14]: 77% | Efficacy [16]: 18% | Activity [15]: 23.7%

IC50 [1]: 4.95 µM
Structure (SMILES): CC(C)Cc1ccc(-c2cc(O)nc(N)n2)cc1

IC50 [1]: 2.47 µM
Structure (SMILES): Nc1nc(O)cc(-c2ccc(Oc3ccccc3)cc2)n1

half-life [3]: 6.59 h | AUC(0-inf) [4]: 4110 ng·h/mL | AUC(0-t) [5]: 4080 ng·h/mL | Cmax [6]: 23.5 µM | Tmax [7]: 0.25 h
Structure (SMILES): COc1ccc(-c2cc(=O)[nH]c(N)n2)cc1

IC50 [1]: > 30 µM
Structure (SMILES): Nc1nc(-c2ccc(O)cc2)cc(=O)[nH]1
